The source of these data is patent publication US20240344014A1, “3D SHELL MICR[…] FOR EL[…] ORGANOIDS” (The Johns Hopkins University, priority 2023, published 2024).

SMILES strings stand for the structures.

For the test, the system named is brain organoids. Description: 3D shell MEA recording of brain organoid electrical activity with glutamate stimulation. Particulars: brain organoid in 3D shell MEA. The test is classed as cell-based, human. The source says:
A 9-week brain organoid was placed at the center of the shell electrodes during self-folding, which allowed the organoid to be enveloped within the leaflets with the PEDOT: PSS electrodes in intimate contact with the organoid (FIG. 10B). A glass cylinder was placed around the device to hold the cell media. Electrode outputs were fabricated for signal acquisition (FIG. 10A). The three PEDOT: PSS electrodes on the leaflets successfully recorded the field potential of the enveloped brain organoid (FIG. 10C, FIG. 11). […] The overlaid spike waveform indicates an average spike duration of ˜2 ms, with varied amplitude during the recording (FIG. 10E). We note that we can add more electrodes to the leaflets to improve the recording (FIGS. 12A-12F, FIGS. 13A-13D).
We further confirm that the signal recorded is from the brain organoids by examining the response to 20 μM glutamate neurotransmitter added to the culture media that served as a positive control for the spontaneous recording (23, 37). […]
After preprocessing the raw signals, we detected spikes separate for each channel using a threshold-based method, where the threshold is automatically set to be 5σn. […] After spike locations were detected, we isolated them by windows of length 3.5 ms. […]

In the case of `N[C@@H](CCC(=O)O)C(=O)O` [glutamate], the “spike signal-to-noise ratio (SNR), increase of median (amplitude of firing spikes)” value (20 μM glutamate added to the culture media, before vs after application) was 57.6%. For the same compound, the “inter-spike-interval (ISI) of glutamate-induced signals” value (20 μM glutamate, before vs after stimulation) was “longer”.
